# From publication PMC9301957 (ACS Omega, 2022)
# Assays:
# [1] = test system: AKT; assay: AKT ELISA, downstream signaling pathway in HCT-116 cells; assay type: cell-based, human; settings: compound at its IC50, untreated control 45.39 ng/mL
# [2] = test system: mTOR; assay: mTOR ELISA, downstream signaling pathway in HCT-116 cells; assay type: cell-based, human; settings: compound at its IC50, untreated control 86.39 ng/mL
# [3] = test system: PI3K; assay: PI3K ELISA, downstream signaling pathway in HCT-116 cells; assay type: cell-based, human; settings: compound at its IC50, untreated control 6.64 ng/mL
# [4] = biological target: EGFR (Homo sapiens, UniProt P00533); assay: EGFR protein kinase; assay type: biochemical; settings: mean ± SD of three replicates; for inhibition at 10 µM: read-out: autophosphorylation percentage inhibition at conc (10 μM), 10 μM
# EGFR, sequence (P00533 25-1210): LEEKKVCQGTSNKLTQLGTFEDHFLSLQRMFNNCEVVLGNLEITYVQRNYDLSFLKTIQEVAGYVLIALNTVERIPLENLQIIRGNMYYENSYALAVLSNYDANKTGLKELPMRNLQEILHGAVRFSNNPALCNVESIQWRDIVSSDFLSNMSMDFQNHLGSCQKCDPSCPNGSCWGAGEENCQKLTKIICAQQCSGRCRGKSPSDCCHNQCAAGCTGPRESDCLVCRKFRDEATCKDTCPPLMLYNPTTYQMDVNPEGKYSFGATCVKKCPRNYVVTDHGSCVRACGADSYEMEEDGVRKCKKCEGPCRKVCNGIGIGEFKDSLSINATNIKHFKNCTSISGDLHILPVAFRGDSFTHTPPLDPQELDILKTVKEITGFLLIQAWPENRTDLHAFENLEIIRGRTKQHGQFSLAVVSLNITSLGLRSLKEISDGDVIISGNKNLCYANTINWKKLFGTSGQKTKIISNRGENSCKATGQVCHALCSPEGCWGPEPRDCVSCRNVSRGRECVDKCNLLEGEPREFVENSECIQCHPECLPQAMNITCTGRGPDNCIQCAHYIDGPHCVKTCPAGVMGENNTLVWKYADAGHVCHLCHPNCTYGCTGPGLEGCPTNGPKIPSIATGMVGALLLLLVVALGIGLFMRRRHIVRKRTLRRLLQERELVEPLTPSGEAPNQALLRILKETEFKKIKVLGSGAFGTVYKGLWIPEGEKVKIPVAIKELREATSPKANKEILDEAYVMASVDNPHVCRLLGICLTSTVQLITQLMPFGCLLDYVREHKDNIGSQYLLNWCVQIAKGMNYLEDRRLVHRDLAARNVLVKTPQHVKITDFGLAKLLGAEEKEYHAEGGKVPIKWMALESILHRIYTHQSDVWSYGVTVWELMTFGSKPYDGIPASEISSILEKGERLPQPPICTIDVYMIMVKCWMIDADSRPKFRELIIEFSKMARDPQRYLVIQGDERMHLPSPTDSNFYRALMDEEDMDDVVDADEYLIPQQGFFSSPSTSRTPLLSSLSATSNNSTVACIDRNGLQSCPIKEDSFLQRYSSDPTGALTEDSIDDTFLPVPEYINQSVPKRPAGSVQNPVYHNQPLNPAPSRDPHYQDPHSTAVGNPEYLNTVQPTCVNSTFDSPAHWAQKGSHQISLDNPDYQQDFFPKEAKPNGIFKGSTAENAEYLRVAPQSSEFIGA
Structure (SMILES),AKT concentration in treated HCT-116 cells [1],mTOR concentration in treated HCT-116 cells [2],PI3K concentration in treated HCT-116 cells [3],autophosphorylation percentage inhibition at conc (10 μM) [4],inhibition at 10 µM [4]
"Cc1cc(C)n(-c2nc(Nc3ccc(Br)cc3)nc(N3CCOCC3)n2)n1 [Compound 4f, N-(4-Bromophenyl)-4-(3,5-dimethyl-1H-pyrazol-1-yl)-6-morpholino-1,3,5-triazin-2-amine]",12.35 ng/mL,34.36 ng/mL,1.24 ng/mL,–,–
"Cc1cc(C)n(-c2nc(Nc3ccc(Cl)cc3)nc(-n3nc(C)cc3C)n2)n1 [Compound 5c, N-(4-chlorophenyl)-4,6-bis(3,5-dimethyl-1H-pyrazol-1-yl)-1,3,5-triazin-2-amine]",–,–,–,69.68 ± 2.01%,70%
"COc1ccc(Nc2nc(-n3nc(C)cc3C)nc(-n3nc(C)cc3C)n2)cc1 [Compound 5d, 4,6-bis(3,5-dimethyl-1H-pyrazol-1-yl)-N-(4-methoxyphenyl)-1,3,5-triazin-2-amine]",–,–,–,74.68 ± 2.47%,74.7%
